Measured values published in patent US20210253572A1, “IMIDAZO[1,2-B]PYRIDAZINES AS TRK INHIBITORS” (BenevolentAl Bio Limited, priority 2018, published 2021).

What was measured:
Type in all cases: biochemical
TrkA = target: T1, TrkA (Homo sapiens, UniProt P04629); test: HTRF KinEASE kinase assay, recombinant Human TRK enzyme, TrkA (NTRK1); conditions: NTRK1 4 nM, read-out: TrkA Enz
T1 construct: purchased Invitrogen
Method: (§1) A suitable assay for determining the Trk inhibition activity of a compound is detailed herein below.
(§2) To determine the IC50 of small molecule compounds for the Human TRK receptors, HTRF® KinEASE™ kinase kits from Cisbio were used. Assays were carried out in low volume, black 384-well plates.
(§3) Recombinant Human TRK enzymes (Invitrogen) were incubated in the presence or absence of the compound (11-point dose response with FAC as 10 μM) for 30 minutes at 23° C. Kinase reaction was started by addition of ATP to a mixture containing the enzyme (NTRK1-4 nM, NTRK2-1 nM, NTRK3-10 nM) and substrate (1 μM). Kinase reaction was allowed to carry on for 10 to 45 minutes at 23° C. after which it was stopped by addition of the detection mix (supplied by vendor) containing EDTA, TK-Ab-labelled with Eu^3+-cryptate (1:200 dilutions) and Streptavidin-XL665 (250 nM). Assay plates were incubated in this detection mix for 60 minutes at 23° C. The resulting TR-FRET signal, calculated as the fluorescence ratio at 665/620 nm, was read on an Envision and was proportional to the level of phosphorylation of the peptide in the presence or absence of the compound. The uniformity of the plates were assured with Z′ value [1−{3*(SDHPE+SDZPE)/(ZPE−HPE)}]. The percent (%) effect i.e. Inhibition of compound was calculated in comparison to the signal in the positive (HPE) and negative control (ZPE) wells within each assay plate. The endpoint value % Inhibition for the Standard compound was evaluated in each experiment as a quality control measure. IC50 was determined by plotting compound inhibition at respective dose in Graphpad prism5 using four parameter logistic curve fit.

TrkB = target: T2, TrkB (Homo sapiens, UniProt Q16620); test: HTRF KinEASE kinase assay, recombinant Human TRK enzyme, TrkB (NTRK2); conditions: NTRK2 1 nM, read-out: TrkB Enz
T2 construct: purchased Invitrogen
Method: as §1, §2, §3

TrkC = target: T3, TrkC (Homo sapiens, UniProt Q16288); test: HTRF KinEASE kinase assay, recombinant Human TRK enzyme, TrkC (NTRK3); conditions: NTRK3 10 nM, read-out: TrkC Enz
T3 construct: purchased Invitrogen
Method: as §1, §2, §3

T3 sequence (Q16288 32-839): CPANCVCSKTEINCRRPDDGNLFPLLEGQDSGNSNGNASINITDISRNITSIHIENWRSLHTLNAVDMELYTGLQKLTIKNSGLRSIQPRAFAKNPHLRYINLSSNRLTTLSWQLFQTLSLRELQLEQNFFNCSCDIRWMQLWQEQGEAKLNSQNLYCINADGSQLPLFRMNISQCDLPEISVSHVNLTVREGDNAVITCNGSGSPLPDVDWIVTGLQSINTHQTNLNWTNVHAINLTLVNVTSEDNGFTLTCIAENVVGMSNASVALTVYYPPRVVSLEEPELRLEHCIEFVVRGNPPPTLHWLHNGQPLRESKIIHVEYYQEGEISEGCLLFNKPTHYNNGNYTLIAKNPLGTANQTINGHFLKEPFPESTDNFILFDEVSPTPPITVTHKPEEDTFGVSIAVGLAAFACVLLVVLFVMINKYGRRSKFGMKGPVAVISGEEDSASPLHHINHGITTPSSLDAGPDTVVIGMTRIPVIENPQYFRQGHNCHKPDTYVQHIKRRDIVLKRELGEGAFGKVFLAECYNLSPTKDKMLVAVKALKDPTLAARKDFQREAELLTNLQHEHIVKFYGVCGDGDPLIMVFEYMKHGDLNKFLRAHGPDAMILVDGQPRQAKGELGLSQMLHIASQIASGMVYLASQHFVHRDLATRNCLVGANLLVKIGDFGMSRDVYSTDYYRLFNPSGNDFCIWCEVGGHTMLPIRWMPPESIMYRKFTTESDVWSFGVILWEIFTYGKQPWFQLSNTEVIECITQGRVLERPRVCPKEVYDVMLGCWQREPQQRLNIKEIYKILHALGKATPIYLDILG
T2 sequence (Q16620 32-822): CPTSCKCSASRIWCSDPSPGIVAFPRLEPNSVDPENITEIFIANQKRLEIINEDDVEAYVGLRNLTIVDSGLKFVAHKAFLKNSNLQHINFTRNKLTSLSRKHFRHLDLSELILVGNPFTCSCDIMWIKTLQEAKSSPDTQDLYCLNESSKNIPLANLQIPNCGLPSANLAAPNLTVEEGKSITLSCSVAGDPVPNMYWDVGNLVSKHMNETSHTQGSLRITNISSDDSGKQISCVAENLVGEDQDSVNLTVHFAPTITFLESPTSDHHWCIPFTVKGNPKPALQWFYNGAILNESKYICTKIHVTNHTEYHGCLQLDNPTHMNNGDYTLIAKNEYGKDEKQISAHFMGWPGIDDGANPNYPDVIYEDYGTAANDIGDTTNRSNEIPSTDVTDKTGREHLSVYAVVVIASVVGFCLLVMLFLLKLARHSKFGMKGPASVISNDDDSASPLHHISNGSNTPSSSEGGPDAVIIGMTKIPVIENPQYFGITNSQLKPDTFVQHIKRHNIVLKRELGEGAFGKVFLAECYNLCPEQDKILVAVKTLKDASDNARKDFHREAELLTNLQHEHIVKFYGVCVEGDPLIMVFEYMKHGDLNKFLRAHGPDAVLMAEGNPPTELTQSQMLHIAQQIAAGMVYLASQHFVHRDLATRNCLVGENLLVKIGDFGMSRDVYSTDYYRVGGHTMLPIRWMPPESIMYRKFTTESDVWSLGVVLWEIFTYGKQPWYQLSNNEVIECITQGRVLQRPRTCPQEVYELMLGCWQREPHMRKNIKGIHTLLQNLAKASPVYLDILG
T1 sequence (P04629 33-796): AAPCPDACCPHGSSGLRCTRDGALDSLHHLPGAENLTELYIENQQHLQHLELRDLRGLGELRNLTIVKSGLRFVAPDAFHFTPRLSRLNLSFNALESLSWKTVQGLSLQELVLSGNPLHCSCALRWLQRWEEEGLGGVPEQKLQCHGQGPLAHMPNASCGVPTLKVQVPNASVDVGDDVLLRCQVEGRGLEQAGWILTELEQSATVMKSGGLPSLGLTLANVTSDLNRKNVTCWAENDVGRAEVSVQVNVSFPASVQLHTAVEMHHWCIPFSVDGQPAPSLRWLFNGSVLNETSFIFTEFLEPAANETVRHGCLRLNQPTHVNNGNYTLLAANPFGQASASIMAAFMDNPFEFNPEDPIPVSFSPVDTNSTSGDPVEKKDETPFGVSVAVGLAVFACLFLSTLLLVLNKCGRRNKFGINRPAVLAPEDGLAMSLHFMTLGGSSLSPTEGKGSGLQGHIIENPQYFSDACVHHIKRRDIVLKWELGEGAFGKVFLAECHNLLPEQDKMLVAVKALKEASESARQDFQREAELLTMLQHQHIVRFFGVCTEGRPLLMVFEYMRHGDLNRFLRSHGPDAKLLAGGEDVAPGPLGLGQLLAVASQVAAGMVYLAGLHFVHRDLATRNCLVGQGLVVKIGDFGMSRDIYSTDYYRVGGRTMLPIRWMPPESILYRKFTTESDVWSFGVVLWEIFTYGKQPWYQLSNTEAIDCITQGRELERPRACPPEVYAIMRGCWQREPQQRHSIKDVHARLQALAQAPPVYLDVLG

Row | SMILES | IC50 (TrkA) | IC50 (TrkB) | IC50 (TrkC)
1 | CSc1cc(F)cc([C@H]2C[C@H](F)CN2c2ccc3ncc(C(=O)N[C@@H]4COCCN(Cc5ccc(F)c(O)c5)C4)n3n2)c1 (single isomer, unassigned) [Example 24] | 6.9 nM | 23.6 nM | 17.3 nM
2 | CSc1cc(F)cc([C@H]2C[C@H](F)CN2c2ccc3ncc(C(=O)N[C@H]4COCCN(Cc5ccc(F)c(O)c5)C4)n3n2)c1 (single isomer, unassigned) [Example 25] | 6.1 nM | 11.4 nM | 8.72 nM
3 | CSc1ccc(F)cc1[C@H]1CCCN1c1ccc2ncc(C(=O)NC3CN(Cc4ccc(F)c(O)c4)C3)n2n1 [Example 1, 6-[(2R)-2-[5-fluoro-2-(methylsulfanyl)phenyl]pyrrolidin-1-yl]-N-{1-[(4-fluoro-3-hydroxyphenyl)methyl]azetidin-3-yl}imidazo[1,2-b]pyridazine-3-carboxamide] | 1.77 nM | 2.06 nM | 2.81 nM
4 | CSc1ccc(F)cc1[C@H]1CCCN1c1ccc2ncc(C(=O)N[C@H]3CCN(Cc4ccc(F)c(O)c4)C3)n2n1 [Example 2, 6-[(2R)-2-[5-fluoro-2-(methylsulfanyl)phenyl]pyrrolidin-1-yl]-N-[(3S)-1-[(4-fluoro-3-hydroxyphenyl)methyl]pyrrolidin-3-yl]imidazo[1,2-b]pyridazine-3-carboxamide] | 1.78 nM | 3.33 nM | 3.36 nM
5 | CSc1ccc(F)cc1[C@H]1C[C@H](F)CN1c1ccc2ncc(C(=O)NC3CCN(Cc4cccc(O)c4)CC3)n2n1 [Example 3, 6-[(2R,4S)-4-fluoro-2-[5-fluoro-2-(methylsulfanyl)phenyl]pyrrolidin-1-yl]-N-{1-[(3-hydroxyphenyl)methyl]piperidin-4-yl}imidazo[1,2-b]pyridazine-3-carboxamide] | 0.92 nM | 0.79 nM | 1.19 nM
6 | CSc1ccc(F)cc1[C@H]1C[C@H](F)CN1c1ccc2ncc(C(=O)NC3CN(Cc4ccc(F)c(O)c4)C3)n2n1 [Example 4, 6-[(2R,4S)-4-fluoro-2-[5-fluoro-2-(methylsulfanyl)phenyl]pyrrolidin-1-yl]-N-{1-[(4-fluoro-3-hydroxyphenyl)methyl]azetidin-3-yl}imidazo[1,2-b]pyridazine-3-carboxamide] | 1.75 nM | 1.05 nM | 1.93 nM
7 | CSc1ccc(F)cc1[C@H]1C[C@H](F)CN1c1ccc2ncc(C(=O)NC3CN(Cc4cccc(O)c4)C3)n2n1 [Example 5, 6-[(2R,4S)-4-fluoro-2-[5-fluoro-2-(methylsulfanyl)phenyl]pyrrolidin-1-yl]-N-{1-[(3-hydroxyphenyl)methyl]azetidin-3-yl}imidazo[1,2-b]pyridazine-3-carboxamide] | 1.9 nM | 1.19 nM | 2.11 nM
8 | CSc1ccc(F)cc1[C@H]1C[C@H](F)CN1c1ccc2ncc(C(=O)NC3CCN(Cc4ccc(F)c(O)c4)CC3)n2n1 [Example 6, 6-[(2R,4S)-4-fluoro-2-[5-fluoro-2-(methylsulfanyl)phenyl]pyrrolidin-1-yl]-N-{1-[(4-fluoro-3-hydroxyphenyl)methyl]piperidin-4-yl}imidazo[1,2-b]pyridazine-3-carboxamide] | 1.47 nM | 0.81 nM | 1.56 nM
9 | CSc1ccc(F)cc1[C@H]1C[C@H](F)CN1c1ccc2ncc(C(=O)NCc3cccc(O)c3)n2n1 [Example 7, 6-[(2R,4S)-4-fluoro-2-[5-fluoro-2-(methylsulfanyl)phenyl]pyrrolidin-1-yl]-N-[(3-hydroxyphenyl)methyl]imidazo[1,2-b]pyridazine-3-carboxamide] | 0.9 nM | 0.49 nM | 1.25 nM
10 | CSc1ccc(F)cc1[C@H]1C[C@H](F)CN1c1ccc2ncc(C(=O)N[C@H]3CCN(Cc4cccc(O)c4)C3)n2n1 [Example 8, 6-[(2R,4S)-4-fluoro-2-[5-fluoro-2-(methylsulfanyl)phenyl]pyrrolidin-1-yl]-N-[(3S)-1-[(3-hydroxyphenyl)methyl]pyrrolidin-3-yl]imidazo[1,2-b]pyridazine-3-carboxamide] | 0.79 nM | 1.51 nM | 1.64 nM
11 | CCCCC(=O)Oc1cccc(CN2CC[C@H](NC(=O)c3cnc4ccc(N5C[C@@H](F)C[C@@H]5c5cc(F)ccc5SC)nn34)C2)c1 [Example 9, 3-{[(3S)-3-{6-[(2R,4S)-4-fluoro-2-[5-fluoro-2-(methylsulfanyl)phenyl]pyrrolidin-1-yl]imidazo[1,2-b]pyridazine-3-amido}pyrrolidin-1-yl]methyl}phenyl Pentanoate] | 3.81 nM | 8.76 nM | 8.43 nM
12 | COC(=O)c1cccc(CN2CC[C@H](NC(=O)c3cnc4ccc(N5C[C@@H](F)C[C@@H]5c5cc(F)ccc5SC)nn34)C2)c1 [Example 10, Methyl 3-{[(3S)-3-{6-[(2R,4S)-4-fluoro-2-[5-fluoro-2-(methylsulfanyl)phenyl]pyrrolidin-1-yl]imidazo[1,2-b]pyridazine-3-amido}pyrrolidin-1-yl]methyl}benzoate] | 1.18 nM | 2.15 nM | 2.12 nM
13 | CSc1ccc(F)cc1[C@H]1C[C@H](F)CN1c1ccc2ncc(C(=O)N[C@H]3CCN(Cc4ccc(F)c(O)c4)C3)n2n1 [Example 11, 6-[(2R,4S)-4-fluoro-2-[5-fluoro-2-(methylsulfanyl)phenyl]pyrrolidin-1-yl]-N-[(3S)-1-[(4-fluoro-3-hydroxyphenyl)methyl]pyrrolidin-3-yl]imidazo[1,2-b]pyridazine-3-carboxamide] | 1.57 nM | 2.27 nM | 2.46 nM
14 | CCCCOC(=O)c1cccc(CN2CC[C@H](NC(=O)c3cnc4ccc(N5C[C@@H](F)C[C@@H]5c5cc(F)ccc5SC)nn34)C2)c1 [Example 12, Butyl 3-{[(3S)-3-{6-[(2R,4S)-4-fluoro-2-[5-fluoro-2-(methylsulfanyl)phenyl]pyrrolidin-1-yl]imidazo[1,2-b]pyridazine-3-amido}pyrrolidin-1-yl]methyl}benzoate] | 3.82 nM | 10.3 nM | 10.9 nM
15 | CCOC(=O)c1cccc(CN2CC[C@H](NC(=O)c3cnc4ccc(N5C[C@@H](F)C[C@@H]5c5cc(F)ccc5SC)nn34)C2)c1 [Example 13, Ethyl 3-{[(3S)-3-{6-[(2R,4S)-4-fluoro-2-[5-fluoro-2-(methylsulfanyl)phenyl]pyrrolidin-1-yl]imidazo[1,2-b]pyridazine-3-amido}pyrrolidin-1-yl]methyl}benzoate] | 1.7 nM | 2.53 nM | 2.01 nM
16 | CSc1ccc(F)cc1[C@H]1C[C@H](F)CN1c1ccc2ncc(C(=O)NCc3ccc(F)c(O)c3)n2n1 [Example 14, 6-[(2R,4S)-4-fluoro-2-[5-fluoro-2-(methylsulfanyl)phenyl]pyrrolidin-1-yl]-N-[(4-fluoro-3-hydroxyphenyl)methyl]imidazo[1,2-b]pyridazine-3-carboxamide] | 0.95 nM | 0.57 nM | 1.47 nM
17 | CSc1cc(F)cc([C@H]2CCCN2c2ccc3ncc(C(=O)N[C@H]4CCN(Cc5ccc(F)c(O)c5)C4)n3n2)c1 [Example 15, N-[(3S)-1-[(4-fluoro-3-hydroxyphenyl)methyl]pyrrolidin-3-yl]-6-[(2R)-2-[3-fluoro-5-(methylsulfanyl)phenyl]pyrrolidin-1-yl]imidazo[1,2-b]pyridazine-3-carboxamide] | 4.86 nM | 9.15 nM | 8.3 nM
